According to ChEMBL document CHEMBL1201862, “PubChem BioAssay data set” (2004):
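In this assay, cells in 96-well plates receive the compound at five concentrations for 48 hours. Endpoints are linearly interpolated between the surrounding concentrations. GI50 is the concentration that inhibits growth by half.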 The source made the active and inactive calls. Rule as the data show it: active = GI50 up to about 1.1 µM and inactive = higher.

How the values were obtained:
Assay in all cases: DTP human tumour cell line panel, 48 h
ACHN = tested on: ACHN
HOP-92 = tested on: HOP-92
HT-29 = tested on: HT-29
LOX IMVI = tested on: LOX IMVI
M14 = tested on: M14
MOLT-4 = tested on: MOLT-4
NCI-H522 = tested on: NCI-H522
OVCAR-3 = tested on: OVCAR-3
OVCAR-4 = tested on: OVCAR-4
OVCAR-8 = tested on: OVCAR-8
RPMI-8226 = tested on: RPMI-8226
SK-MEL-2 = tested on: SK-MEL-2
SK-OV-3 = tested on: SK-OV-3
SN12C = tested on: SN12C
SNB-75 = tested on: SNB-75
SW-620 = tested on: SW-620
U-251 = tested on: U-251
UACC-62 = tested on: UACC-62
DU-145 = tested on: DU-145

Structure (SMILES) | GI50 (ACHN) | GI50 (HOP-92) | GI50 (HT-29) | GI50 (LOX IMVI) | GI50 (M14) | GI50 (MOLT-4) | GI50 (NCI-H522) | GI50 (OVCAR-3) | GI50 (OVCAR-4) | GI50 (OVCAR-8) | GI50 (RPMI-8226) | GI50 (SK-MEL-2) | GI50 (SK-OV-3) | GI50 (SN12C) | GI50 (SNB-75) | GI50 (SW-620) | GI50 (U-251) | GI50 (UACC-62) | GI50 (DU-145)
CC(=O)c1ccccc1NC(=O)C(=O)C(C(=O)c1ccc2ccccc2c1)C1OC(=O)c2ccccc21 (stereo unspecified) | 31.8 µM (inactive) | 12.4 µM (inactive) | 34.8 µM (inactive) | 7.71 µM (inactive) | 16.4 µM (inactive) | 3.67 µM (inactive) | 10.7 µM (inactive) | 9.82 µM (inactive) | 17.2 µM (inactive) | 11.6 µM (inactive) | 6.11 µM (inactive) | 10.2 µM (inactive) | 29.2 µM (inactive) | 13.7 µM (inactive) | 8.95 µM (inactive) | 7.83 µM (inactive) | 6.75 µM (inactive) | 13 µM (inactive) | –
Nc1ccc(C(=O)NN2C(=O)C(Cl)C2c2cc(Br)ccc2O)cc1 (stereo unspecified) | > 100 µM (inactive) | > 100 µM (inactive) | 64.6 µM (inactive) | 41.2 µM (inactive) | > 100 µM (inactive) | – | 22.4 µM (inactive) | > 100 µM (inactive) | > 100 µM (inactive) | > 100 µM (inactive) | > 100 µM (inactive) | – | > 100 µM (inactive) | > 100 µM (inactive) | > 100 µM (inactive) | > 100 µM (inactive) | 32.6 µM (inactive) | > 100 µM (inactive) | –
NC(=S)N1N=C2c3ccccc3CC[C@H]2[C@@H]1c1cccs1 | 49.2 µM (inactive) | 68.7 µM (inactive) | 24.1 µM (inactive) | 66.5 µM (inactive) | 22 µM (inactive) | 21.5 µM (inactive) | 16.8 µM (inactive) | 36.2 µM (inactive) | 45.2 µM (inactive) | 32.7 µM (inactive) | 37.9 µM (inactive) | 22.1 µM (inactive) | 37.7 µM (inactive) | 39.3 µM (inactive) | – | 38.7 µM (inactive) | 35.3 µM (inactive) | 33.7 µM (inactive) | –
O=C(CN1CCOCC1)Nc1nc(-c2ccc(Cl)cc2)cs1 | 25.1 µM (inactive) | 53.7 µM (inactive) | 36.1 µM (inactive) | 22.2 µM (inactive) | 32.2 µM (inactive) | 13.8 µM (inactive) | – | 22.3 µM (inactive) | 25.7 µM (inactive) | 23.8 µM (inactive) | 13.6 µM (inactive) | 26.5 µM (inactive) | 65.3 µM (inactive) | 34.3 µM (inactive) | 19 µM (inactive) | 41.8 µM (inactive) | 24.2 µM (inactive) | 20 µM (inactive) | –
CCN(CC)c1oc(N(CC)CC)c(C(=O)Nc2ccccn2)c(=O)c1C(C)=O | > 100 µM (inactive) | > 100 µM (inactive) | > 100 µM (inactive) | – | > 100 µM (inactive) | > 100 µM (inactive) | > 100 µM (inactive) | > 100 µM (inactive) | – | > 100 µM (inactive) | > 100 µM (inactive) | > 100 µM (inactive) | > 100 µM (inactive) | > 100 µM (inactive) | > 100 µM (inactive) | > 100 µM (inactive) | > 100 µM (inactive) | > 100 µM (inactive) | –
CCCc1nc(N)nc(C(=O)Nc2cccc(C(F)(F)F)c2)c1CC | > 100 µM (inactive) | > 100 µM (inactive) | > 100 µM (inactive) | > 100 µM (inactive) | > 100 µM (inactive) | > 100 µM (inactive) | – | > 100 µM (inactive) | > 100 µM (inactive) | > 100 µM (inactive) | 76.6 µM (inactive) | > 100 µM (inactive) | – | > 100 µM (inactive) | > 100 µM (inactive) | > 100 µM (inactive) | > 100 µM (inactive) | > 100 µM (inactive) | –
CCCC[C@H](CCc1ccccc1)N(C(=O)OC)N1CCC[C@H]1COC | 16.8 µM (inactive) | 18.6 µM (inactive) | 15.1 µM (inactive) | 18.3 µM (inactive) | 26 µM (inactive) | 24.2 µM (inactive) | 14.1 µM (inactive) | 18.3 µM (inactive) | 17.5 µM (inactive) | 27.5 µM (inactive) | 31.6 µM (inactive) | 18.5 µM (inactive) | 24.1 µM (inactive) | 17.9 µM (inactive) | 35.1 µM (inactive) | 16.3 µM (inactive) | 15.4 µM (inactive) | 16 µM (inactive) | –
N#C/C(=C\c1c(Cl)cccc1Cl)c1ccccc1 | 7.59 µM (inactive) | 8.49 µM (inactive) | 4.19 µM (inactive) | 18.7 µM (inactive) | 6.4 µM (inactive) | 4.73 µM (inactive) | 14.2 µM (inactive) | 3.8 µM (inactive) | 20.1 µM (inactive) | 16.4 µM (inactive) | 5.48 µM (inactive) | 5.78 µM (inactive) | 6.11 µM (inactive) | 9.82 µM (inactive) | 2.97 µM (inactive) | 2.74 µM (inactive) | 4.39 µM (inactive) | 4.88 µM (inactive) | –
COC(=O)[C@@]1(C)/C(=N/NS(=O)(=O)c2ccc(C)cc2)CCC[C@@H]1C | > 100 µM (inactive) | > 100 µM (inactive) | > 100 µM (inactive) | 14.3 µM (inactive) | > 100 µM (inactive) | > 100 µM (inactive) | 41.8 µM (inactive) | > 100 µM (inactive) | > 100 µM (inactive) | > 100 µM (inactive) | 30.8 µM (inactive) | > 100 µM (inactive) | > 100 µM (inactive) | > 100 µM (inactive) | > 100 µM (inactive) | – | > 100 µM (inactive) | > 100 µM (inactive) | –
O=S(=O)(c1ccccc1)n1cc(C[P+](c2ccccc2)(c2ccccc2)c2ccccc2)c2ccccc21 | 15.3 µM (inactive) | 1.87 µM (inactive) | 3.4 µM (inactive) | 3.57 µM (inactive) | 2.64 µM (inactive) | 4.91 µM (inactive) | 2.36 µM (inactive) | 2.95 µM (inactive) | 9.95 µM (inactive) | 2.81 µM (inactive) | 0.6 µM (active) | 2.3 µM (inactive) | 2.5 µM (inactive) | 5.69 µM (inactive) | 3.25 µM (inactive) | 4.59 µM (inactive) | 3.79 µM (inactive) | 5.12 µM (inactive) | –
Cc1c2cc[n+](C)cc2c(C)c2c1[nH]c1ccc(Oc3ccccc3)cc12 | 2.48 µM (inactive) | 0.935 µM (active) | 0.843 µM (active) | 1.61 µM (inactive) | 4.37 µM (inactive) | 1.69 µM (inactive) | – | 1.14 µM (inactive) | 2.56 µM (inactive) | 0.605 µM (active) | 2.64 µM (inactive) | 0.832 µM (active) | 1.14 µM (inactive) | 0.303 µM (active) | 0.441 µM (active) | 0.537 µM (active) | 0.236 µM (active) | 1.43 µM (inactive) | –
CCc1nc(N)nc(C(=O)NCCNC(=O)c2nc(N)nc(CC)c2C)c1C | > 100 µM (inactive) | > 100 µM (inactive) | > 100 µM (inactive) | > 100 µM (inactive) | > 100 µM (inactive) | > 100 µM (inactive) | – | > 100 µM (inactive) | > 100 µM (inactive) | > 100 µM (inactive) | > 100 µM (inactive) | > 100 µM (inactive) | – | > 100 µM (inactive) | > 100 µM (inactive) | > 100 µM (inactive) | > 100 µM (inactive) | > 100 µM (inactive) | –
O=C1C=CC(=O)C2=C1[C@@H](O)C1CC=CC3C(=O)O[C@@H]2C31 (stereo partly specified) | 36.5 µM (inactive) | 26.2 µM (inactive) | 24.3 µM (inactive) | 20.6 µM (inactive) | 19.6 µM (inactive) | 20 µM (inactive) | 15.5 µM (inactive) | 21 µM (inactive) | 13.2 µM (inactive) | 39.5 µM (inactive) | 19.9 µM (inactive) | 18.2 µM (inactive) | > 100 µM (inactive) | 20.7 µM (inactive) | 24.9 µM (inactive) | 22.4 µM (inactive) | > 77.8 µM (inactive) | 19.2 µM (inactive) | –
O=C(/N=N/c1ccccc1Br)NNc1ccccc1Br | 46.1 µM (inactive) | – | > 100 µM (inactive) | 91.4 µM (inactive) | 60.8 µM (inactive) | 25.6 µM (inactive) | 40.6 µM (inactive) | 86.3 µM (inactive) | 56.2 µM (inactive) | > 100 µM (inactive) | 33.8 µM (inactive) | 35.4 µM (inactive) | – | 77.6 µM (inactive) | > 100 µM (inactive) | 67.1 µM (inactive) | 60.8 µM (inactive) | 48.8 µM (inactive) | > 100 µM (inactive)
O=C(O)C12C3C4C1C1C2C3C1(Br)C41OCCO1 (stereo unspecified) | > 100 µM (inactive) | > 100 µM (inactive) | > 100 µM (inactive) | > 100 µM (inactive) | – | > 100 µM (inactive) | > 100 µM (inactive) | > 100 µM (inactive) | – | > 100 µM (inactive) | > 100 µM (inactive) | > 100 µM (inactive) | > 100 µM (inactive) | – | > 100 µM (inactive) | > 100 µM (inactive) | > 100 µM (inactive) | – | –
COc1ccc2nc(NC(=O)C(=O)C(C#N)c3ccc([N+](=O)[O-])cc3)sc2c1 (stereo unspecified) | > 100 µM (inactive) | > 100 µM (inactive) | > 100 µM (inactive) | > 100 µM (inactive) | > 100 µM (inactive) | 38.3 µM (inactive) | 55.5 µM (inactive) | > 100 µM (inactive) | > 100 µM (inactive) | > 100 µM (inactive) | 31.2 µM (inactive) | > 100 µM (inactive) | > 100 µM (inactive) | > 100 µM (inactive) | > 100 µM (inactive) | > 100 µM (inactive) | > 100 µM (inactive) | 46 µM (inactive) | –
